For experiment [1], the system named is M-CSC-HPMC interaction. As to the kind of experiment: Microfluidic perfusion assay of M-CSCs on HPMC-coated channels under shear stress. The format is cell-based, human. As to conditions: for effect on M-CSCs binding/adhesion to HPMCs: M-CSCs treated before perfusion, result in words. The protocol:
(§1) Microfluidic chips were fabricated as described^13. To coat microfluidic channels with selectin recombinant proteins, channels were incubated with 1 μg mL^−1 selectin-Fc recombinant proteins in PBS at 4° C. overnight. To coat microfluidic channels with HPMCs, channels were incubated with 10 μg mL^−1 human fibronectin in serum free medium overnight at 4° C. After wash, the channels were introduced with HPMCs suspension (3.5×10^6 mL^−1) and cultured overnight under C02 incubator at 37° C. To functionally block selectins, HPMCs were incubated with 20 μg mL^−1 anti-E-selectin, anti-P-selectin, anti-L-selectin or isotype antibody at room temperature for 1 h before the assays.
(§2) CSCs of 70-100 μm diameter were collected with cell strainer, fluorescently labeled with CMFDA Celltracker (2.5 μg mL^−1, C7025, Life Technologies) as per manufacturer's instructions for assays. Fluorescently labeled CSCs resuspended in binding buffer (1500 spheroids mL^−1) were perfused into the microfluidic channel through a syringe pump (LongerPump) under desired shear stresses. The viscosity of the binding buffer (0.9 cp) is within the range of viscosity (0.95±0.15 cp) of ascitic fluid in patients with various ascitic etiologies^48. The motion of cancer spheroids was observed under fluorescent microscope (Nikon ECLIPSE Ti) and serial time lapse images (1 image sec^−1) were captured for 30 sec. More than three randomly chosen areas (4× objective) were captured for each treatment.
(§3) The motion of cancer spheroids under flow was analyzed offline using Image J (National Institutes of Health) and used for the classification of interactions as described^49. Briefly, cancer spheroids that tethered to the surface, then detached in the flow were defined as tethering. Cancer spheroids that moved at a velocity below the hydrodynamic velocity for more than one spheroid diameter were defined as rolling. Cancer spheroids that remained stationary for more than one frame during recording were determined as adhesion. Percentage of tethering or adhesion was calculated by dividing the number of tethering or adherent spheroids by the total number of spheroids flew through the field of observation in the 30 sec duration.
(§4) In some experiments, M-CSCs were incubated with or without neuramidase (100 mU, N2876, Sigma-Aldrich), α1-3,4 fucosidase (150 mU, P0769S, New England BioLabs), OSGE (100 μg mL^−1, CLE100, Cedarlane) or PNGase (10 U mL^−1, P0704S, New England BioLabs) according to the manufacturer's instructions for 1 h at 37° C. prior staining. To inhibit sulfation, M-CSCs were incubated with sodium chlorate (25 mM, 403016, Sigma-Aldrich) in serum-free medium for 48 h. To functionally block sLe^x, sLe^a or IGF-1R on M-CSCs, M-CSCs were incubated with CSLEX-1 (10 μg mL^−1, 551344, BD Biosciences), anti-CA19-9 (10 μg mL^−1, ab15146, Abcam), anti-IGF-1R (2 μg mL^−1, 24-60, Invitrogen) or isotype antibodies for 1 h at 37° C., respectively. To remove cell surface glycoprotein, M-CSCs were incubated with Trypsin/EDTA solution (0.05%, 25300054, Gibco) for 5 min and neutralized with the complete medium. To inhibit glycolipid synthesis, M-CSCs were cultured with or without DL-PPMP (2.5 μM, sc-205655, Santa Cruz) in serum-free medium for 5 days. To test the involvement of RTKs in mediating CSCs adhesion, M-CSCs were treated with or without small molecule inhibitors as indicated in the FIG. 13 before perfusion. All CSC perfusion experiments were repeated with HPMCs isolated from at least 3 different patients.

For experiment [2], the system named is P-selectin-Fc. Nature of the experiment: Microfluidic perfusion assay of M-CSCs on P-selectin-Fc recombinant protein-coated channels. The class given is cell-based. The settings on record: for effect on M-CSCs binding/adhesion to P-selectin-Fc: M-CSCs treated before perfusion, result in words. The protocol: as §1, §2, §3, §4
Experiment [3] has as its target P-selectin recombinant protein (Homo sapiens, UniProt P16109). Nature of the experiment: Flow adhesion assay of HM and NM cells on P-selectin recombinant protein. The format is cell-based. As to conditions: 5 mM EDTA solution, shear stress 1 dynes/cm^2 for 1 min. An excerpt: FIG. 9A-9E show results of flow adhesion assay. (A) Transient velocities of representative cells on P-selectin recombinant protein. Triangles represent a rolling adhesion highly metastatic (HM) cells; Circles represent a non-interaction non-metastatic (NM) cells quickly passed through the channel. […] (B) Rolling percentage of NM and HM cells on P-selectin recombinant protein. (C) Cumulative frequency rolling velocity histograms. (D) Adhesion percentage of NM and HM cells on P-selectin recombinant protein. HM or NM cells were introduced into flow chambers pre-coated with […] P-selectin-Fc chimera or Fc control at shear stress of 0.1 dyne/cm2. Cell movement was observed under microscope and captured with high speed camera. Cancer cells rolling velocity was calculated by dividing moving distance with duration. […] Adhesion was defined as cancer cells stop moving for more than one second during recording. The rolling or adhesion fraction was quantified through dividing the number of rolling or adhesive cells by the total number of cells traveled into the field of observation area for 30 seconds. (E) Adhesion percentage of NM and HM cells on P-selectin-Fc chimera at shear stress of 0.05-0.15 dyne/cm2. Data are presented as mean±S.E.; *P<0.05, **P<0.01.
FIG. 10A-10B show EDTA detachment assay. […] (A) A brightfield microscope image of captured HM cells. […]

For experiment [4], the target named is T1, P-selectin (Mus musculus, UniProt Q01102).
T1 construct: from tissue; host or cells: peritoneum, mesentery and omentum of living NOD/SCID mice
T1 sequence (Q01102 42-768): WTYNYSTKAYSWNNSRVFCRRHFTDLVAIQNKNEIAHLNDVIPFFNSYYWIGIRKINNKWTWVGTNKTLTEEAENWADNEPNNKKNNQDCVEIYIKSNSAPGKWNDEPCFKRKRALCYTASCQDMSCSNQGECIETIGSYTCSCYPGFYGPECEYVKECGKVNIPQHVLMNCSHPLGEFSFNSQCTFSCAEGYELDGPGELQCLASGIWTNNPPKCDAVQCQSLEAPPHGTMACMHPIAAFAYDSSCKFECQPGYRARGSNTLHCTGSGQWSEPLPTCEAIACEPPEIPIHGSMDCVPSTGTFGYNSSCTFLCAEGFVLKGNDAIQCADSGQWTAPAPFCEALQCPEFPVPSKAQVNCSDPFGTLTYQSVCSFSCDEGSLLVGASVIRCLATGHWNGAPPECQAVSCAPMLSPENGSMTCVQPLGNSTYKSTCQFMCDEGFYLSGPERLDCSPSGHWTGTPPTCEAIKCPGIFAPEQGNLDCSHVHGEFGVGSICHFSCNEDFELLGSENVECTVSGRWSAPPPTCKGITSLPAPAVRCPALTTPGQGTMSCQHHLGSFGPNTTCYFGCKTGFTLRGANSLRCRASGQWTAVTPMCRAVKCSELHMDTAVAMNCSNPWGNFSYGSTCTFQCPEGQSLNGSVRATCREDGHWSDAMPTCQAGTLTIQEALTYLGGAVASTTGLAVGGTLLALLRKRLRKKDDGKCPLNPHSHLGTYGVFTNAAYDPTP
As to the kind of experiment: Adhesion of tumor cells to the mouse peritoneum. The format is in vivo. The settings on record: 1 mg kg^-1 i.p. 1 h prior to injection of M-CSCs from SKOV-3 and ovarian cancer patients; NOD/SCID mice. As to the method: M-CSCs (1×10^7) derived from SKOV-3 and ovarian cancer patients were fluorescently labeled with CMFDA and i.p. injected into NOD/SCID mice. To inhibit P-selectin, KF38789 (1 mg kg^−1, 2748, Tocris) or vehicle control were injected into the peritoneal cavity of mice 1 h prior to cell injection. Mice were sacrificed after 16 h and the peritoneal cavity was washed with PBS to remove non-adherent cells. Fluorescent signal from adherent tumor cells was acquired in the IVIS Spectrum and peritoneum, mesentery, and omentum were lysed with 1% NP-40 and fluorescence was measured with VICTOR (PerkinElmer).

Setting [5] is: shear stress around 1 dynes cm^-2.

The values below come from patent publication US12674795B2, “Method for peritoneal metastatic cell detection and isolation thereof” (THE UNIVERSITY OF HONG KONG, priority 2019, dated 2026).

P-selectin recombinant protein, sequence (P16109 with tags, fused parts or gaps limits assumed, species assumed): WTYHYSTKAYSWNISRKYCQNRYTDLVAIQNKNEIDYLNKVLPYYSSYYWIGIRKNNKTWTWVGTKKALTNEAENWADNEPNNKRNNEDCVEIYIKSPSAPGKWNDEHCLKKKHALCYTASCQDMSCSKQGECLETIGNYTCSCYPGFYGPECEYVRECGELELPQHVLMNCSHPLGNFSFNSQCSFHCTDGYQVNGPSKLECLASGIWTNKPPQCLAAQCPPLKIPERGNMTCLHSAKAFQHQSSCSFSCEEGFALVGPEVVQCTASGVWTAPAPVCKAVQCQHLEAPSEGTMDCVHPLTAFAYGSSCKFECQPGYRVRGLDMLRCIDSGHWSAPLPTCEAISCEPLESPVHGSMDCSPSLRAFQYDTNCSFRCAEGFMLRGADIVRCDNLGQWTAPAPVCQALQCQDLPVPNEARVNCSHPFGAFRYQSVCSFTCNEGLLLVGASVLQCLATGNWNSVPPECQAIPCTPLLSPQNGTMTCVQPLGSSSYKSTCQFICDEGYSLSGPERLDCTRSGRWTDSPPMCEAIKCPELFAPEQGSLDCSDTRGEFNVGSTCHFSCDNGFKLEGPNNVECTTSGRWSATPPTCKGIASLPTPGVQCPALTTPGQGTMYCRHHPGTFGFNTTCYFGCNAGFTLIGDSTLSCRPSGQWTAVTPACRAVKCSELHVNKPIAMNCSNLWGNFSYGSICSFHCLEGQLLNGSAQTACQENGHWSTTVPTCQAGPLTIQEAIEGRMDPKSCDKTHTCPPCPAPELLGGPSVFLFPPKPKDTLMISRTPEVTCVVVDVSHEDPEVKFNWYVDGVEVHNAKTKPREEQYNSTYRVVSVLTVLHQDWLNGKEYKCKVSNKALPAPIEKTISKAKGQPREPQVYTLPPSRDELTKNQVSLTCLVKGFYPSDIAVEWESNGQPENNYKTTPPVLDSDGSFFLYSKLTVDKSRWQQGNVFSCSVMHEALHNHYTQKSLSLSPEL

With `CC(C)(C)c1cc(C=C(C#N)C#N)cc(Br)c1O` [AG1024], the “effect on M-CSCs binding/adhesion to HPMCs” value in experiment [1] is “marked decrease”. In addition, the “effect on M-CSCs binding/adhesion to P-selectin-Fc” value in experiment [2] is listed as “marked decrease”.
With `O=C(O)CN(CCN(CC(=O)O)CC(=O)O)CC(=O)O` [EDTA], in experiment [3], the “detachment of captured HM cells from P-selectin-coated channel bottom” value is given as “easily detached”. The “effect on M-CSCs binding/adhesion to HPMCs” value in experiment [1] is reported as “inhibited the adhesion”. In addition, the “detachment of adherent M-CSCs from HPMCs” value in experiment [1] (setting [5]) is on record as “easily detach”. Moreover, in experiment [2] (setting [5]), the “detachment of adherent M-CSCs from P-selectin chimera” value is reported as “easily detach”.
For the compound `COc1ccc(C2CC(c3c(O)cc(C)oc3=O)=NCCS2)c(OC)c1` (stereo not drawn) [KF38789], in experiment [4], the “extent of tumor metastases on the omentum, mesenteries and peritoneal wall” value is given as “significantly inhibited”.
As for `CCCCCCCCCCCCCCCC(=O)N[C@H](CN1CCOCC1)[C@H](O)c1ccccc1` [PPMP], the “effect on M-CSCs binding/adhesion to HPMCs” value in experiment [1] is reported as “had no effect”. The “effect on M-CSCs binding/adhesion to P-selectin-Fc” value in experiment [2] was “had no effect”.
As to `O=c1c(-c2ccc(O)cc2)coc2cc(O)cc(O)c12` [genistein], the “effect on M-CSCs binding/adhesion to HPMCs” value in experiment [1] is recorded as “marked decrease”. The “effect on M-CSCs binding/adhesion to P-selectin-Fc” value in experiment [2] was “marked decrease”.
As for `[Na+].[O-][Cl+2]([O-])[O-]` [sodium chlorate], the “effect on M-CSCs binding/adhesion to HPMCs” value in experiment [1] was “did not alter the binding activity”. In addition, the “effect on M-CSCs binding/adhesion to P-selectin-Fc” value in experiment [2] is “did not alter the binding activity”.
As to trypsin, in experiment [1], the “effect on M-CSCs binding/adhesion to HPMCs” value is given as “almost completely abolished the adhesion”. The “effect on M-CSCs binding/adhesion to P-selectin-Fc” value in experiment [2] was “almost completely abolished the adhesion”.
